This note sets out measurements from patent US10676433B2, “Indole derivatives and their use in neurodegenerative diseases” (Merck Patent GmbH, priority 2014, dated 2020).

The assay deals with human P2X7 receptor (Homo sapiens (Human), UniProt Q99572). Description: Pore permeation assay (YO PRO dye uptake). Format: cell-based. As to conditions: HEK293 transfected with human P2X7 receptor, BzATP 10 uM, read-out: hP2X7 IC50. The protocol:
Agonist-induced pore formation was determined by measuring cellular uptake of YO PRO fluorescence dye in HEK293 transfected with human P2X7 receptor. A HEK293 cell over expressing human P2X7 was harvested using HQTase reagent to detach the cells from T75 cm flask. The harvested cells are centrifuged @ 1200 rpm for 5 min at room temperature. The viability of cells was determined by Trypan blue dye and the cells are plated @ 10,000 cell/well in 50 ul volume in a 384W BD Poly lysine coated plate and incubated overnight at 37 C. […] The plate was centrifuged at 1000 rpm for 5 seconds and incubated at room temperature for 30 minutes. The uptake of YO PRO dye into the cells was measured using Envision Fluorescence plate reader instrument (Perkin Elmer).

Sequence of human P2X7 receptor (Q99572 whole entry): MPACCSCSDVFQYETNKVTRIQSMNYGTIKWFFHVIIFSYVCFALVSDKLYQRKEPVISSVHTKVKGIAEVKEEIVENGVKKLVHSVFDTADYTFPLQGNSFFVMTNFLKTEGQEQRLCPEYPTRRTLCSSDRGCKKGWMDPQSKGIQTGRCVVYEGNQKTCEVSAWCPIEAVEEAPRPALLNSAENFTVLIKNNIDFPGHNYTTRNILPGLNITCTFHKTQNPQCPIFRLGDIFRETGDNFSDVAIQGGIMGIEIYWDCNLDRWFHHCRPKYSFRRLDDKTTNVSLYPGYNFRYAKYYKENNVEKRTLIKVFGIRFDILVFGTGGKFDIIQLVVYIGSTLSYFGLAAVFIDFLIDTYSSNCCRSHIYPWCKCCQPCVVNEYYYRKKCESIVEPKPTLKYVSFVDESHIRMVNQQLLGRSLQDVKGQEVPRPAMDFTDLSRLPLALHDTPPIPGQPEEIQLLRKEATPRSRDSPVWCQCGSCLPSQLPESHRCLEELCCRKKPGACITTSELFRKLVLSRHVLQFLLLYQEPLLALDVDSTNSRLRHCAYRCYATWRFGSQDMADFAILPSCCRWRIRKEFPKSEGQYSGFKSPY

With “4-Chloro-1-oxetan-3-yl-1H-indole-3-carboxylic acid (2,2-difluoro-ethyl)-amide [Compound 76]”, the half-maximal inhibitory concentration (IC50) is greater than 1 µM.

As to `CC(O)(CNC(=O)c1cn(C2CCOC2)c2cccc(Cl)c12)C1CCCC1` (centres unmarked) [Compound 102, 4-Chloro-1-(tetrahydro-furan-3-yl)-1H-indole-3-carboxylic acid (2-cyclopentyl-2-hydroxy-propyl)-amide], the IC50 was greater than 1 µM.

One may read the IC50 as the concentration that inhibits the measured activity by half.
